Results on 19 compounds are retold here after patent US10414763B2 (CANCER RESEARCH TECHNOLOGY LIMITED, priority 2014, dated 2019).

Structures are written as SMILES.

The assay addresses T1, full-length human PKCι (Homo sapiens, UniProt P41743).
T1 construct: Recombinant, full-length human PKCι expressed in Sf21 insect cells is also commercially available; purchased EMD Millipore; host or cells: Sf21 insect cells (baculovirus)
T1 sequence (P41743 1-596): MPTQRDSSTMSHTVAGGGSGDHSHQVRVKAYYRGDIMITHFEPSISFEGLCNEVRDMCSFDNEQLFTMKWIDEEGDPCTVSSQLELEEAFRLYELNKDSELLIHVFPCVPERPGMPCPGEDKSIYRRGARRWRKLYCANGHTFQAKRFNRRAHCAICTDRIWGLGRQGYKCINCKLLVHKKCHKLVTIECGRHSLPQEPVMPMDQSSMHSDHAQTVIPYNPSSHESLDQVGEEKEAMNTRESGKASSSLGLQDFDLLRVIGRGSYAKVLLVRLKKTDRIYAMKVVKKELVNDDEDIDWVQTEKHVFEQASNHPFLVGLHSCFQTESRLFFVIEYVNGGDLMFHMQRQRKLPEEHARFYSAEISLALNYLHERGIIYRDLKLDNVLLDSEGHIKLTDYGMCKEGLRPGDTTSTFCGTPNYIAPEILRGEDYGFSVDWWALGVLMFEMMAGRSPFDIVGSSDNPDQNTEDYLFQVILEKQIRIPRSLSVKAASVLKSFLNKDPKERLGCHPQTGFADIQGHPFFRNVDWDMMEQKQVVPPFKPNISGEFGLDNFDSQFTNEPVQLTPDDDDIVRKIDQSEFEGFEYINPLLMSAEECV
The experiment in a line: PKCι IC50 IMAP fluorescence polarisation assay, full-length enzyme, 150 μM ATP. The assay is classed as biochemical. The note with it: read-out: IC50 in IMAP assay against full length PKCi at 150 μM ATP. An excerpt:
Assays are based on the ability of PKCι to phosphorylate a commercially available peptide substrate in vitro. The peptide substrate is FAM-PKCε pseudopeptide derived peptide, and comprises the amino acid sequence 5FAM-ERMRPRKRQGSVRRRV-NH2. Recombinant, full-length human PKCι expressed in Sf21 insect cells is also commercially available. Recombinant, kinase-domain human PKCι is expressed and purified in-house.
The procedure below explains how dose response curves for inhibitors of PKCι are obtained. The screen described is for a 384 well format but the assay can be adapted to 1536 or other formats as required.
Compounds to be tested are dissolved in 100% DMSO. Compounds are diluted as required to give a final concentration of 4% DMSO (v/v) in the assay. 1 μl is plated into 384 well black low-binding flat bottomed assay plates which are used immediately. Dilutions and additions of compound to assay plates are carried out using Matrix WellMate® and Matrix PlateMate® Plus liquid handling systems.
On the day of the screen PKCι/substrate working solution, and ATP working solution, are prepared in buffer containing 20 mM tris-HCl pH7.5, 10 mM MgCl2, 0.01% Triton X100, 250 μM EGTA and 1 mM DTT. The final concentration of PKCι used varies depending on the batch of protein but is typically 15 pM. The final concentration of peptide substrate in the assay is 100 nM. ATP is used at a final concentration of 150 μM or 25 μM in the assays containing full-length or kinase-domain PKCι respectively, which corresponds to five times or equal to the KM^APP for ATP for each enzyme, respectively. The final buffer concentration in the assay is 18 mM tris-HCl pH7.5, 9 mM MgCl2, 0.009% Triton X100, 225 μM EGTA and 0.9 mM DTT. Relevant controls are included, namely no compound and no enzyme. 5 μl PKCι/substrate working solution at 30 pM and 200 nM, respectively, is added to the wells, followed by 4 μl ATP working solution at 375 μM or 62.5 μM for full-length or kinase-domain PKCι respectively, using a 16 channel Matrix pipette. The reaction is allowed to incubate for 60 minutes at room temperature, before the reaction is stopped and developed by the addition of 20 μl IMAP™ development reagent (Molecular Devices). IMAP development reagent consists of 0.25% (v/v) IMAP progressive binding reagent, 17% (v/v) IMAP progressive binding buffer A and 3% (v/v) IMAP progressive binding buffer B. The plates are then incubated for 2 hours at room temperature before being read using an appropriate plate reader, for example a Molecular Devices HT Analyst or a BMG Pherastar. Plates are read using a fluorescence polarisation protocol with excitation at 485 nm and emission at 530 nm, and dichroic mirror at 505 nm.
Percentage inhibition values are calculated from fluorescence polarisation values, using the no compound and no enzyme control values as 0% and 100% inhibition, respectively. IC50 determination is performed with ExcelFit software (IDBS) using curve fit 205. Z′ factors are determined for each plate tested and are all above 0.5.
Alternatively, compounds were tested for their ability to inhibit the kinase activity of recombinant human baculovirus-expressed PKCiota using the immobilized metal-ion affinity particle (IMAP®) fluorescence polarization detection system (Molecular Devices, Sunnyvale, Calif.). PKCiota/IMAP® substrate mixture (2×) was prepared in 1×IMAP assay buffer (Molecular Devices) containing 1 mM DTT so that the final assay concentrations were 15 pM PKCiota (EMD Millipore, Billerica, Mass.) and 100 nM 5-fluorescein-amidite (FAM)-PKC ? -pseudosubstrate (5-FAM-ERMRPRKRQGSVRRRV-NH2) (Molecular Devices). The 2× working solution was added at 5 μL/well into a 384-well black, non-binding, flat bottom assay plate (Corning, Corning, N.Y.). […]
With `C[C@@H]1CNCC[C@@H]1Nc1nc(-c2ccnc3[nH]c(C(F)(F)F)cc23)nc2cncc(C3CCC3)c12` (racemic) [Example 263], the IC50 was less than 100 nM.

In the case of `CC1(C)CNCC[C@@H]1Nc1nc(-c2ccnc(Nc3ncn(-c4ccccc4)n3)c2)nc2cncc(C3CCC3)c12` [Example 329, 5-Cyclobutyl-N-[(4S)-3,3-dimethyl-4-piperidyl]-2-[2-[(1-phenyl-1,2,4-triazol-3-yl)amino]-4-pyridyl]pyrido[3,4-d]pyrimidin-4-amine], the IC50 is less than 100 nM.

Turning to `COc1ccc(Cl)c(-c2cc3c(-c4nc(N[C@H]5CCNCC5(C)C)c5c(C6CC6)cncc5n4)ccnc3[nH]2)c1` [Example 368, {2-[2-(2-Chloro-5-methoxy-phenyl)-1H-pyrrolo[2,3-b]pyridin-4-yl]-5-cyclopropyl-pyrido[3,4-d]pyrimidin-4-yl}-((S)-3,3-dimethyl-piperidin-4-yl)-amine], the IC50 was less than 100 nM.

Take `O[C@@H]1CNCC[C@H]1Nc1nc(-c2ccnc(Nc3nc(F)cc(F)c3F)c2)nc2cncc(C3CCC3)c12` (racemic) [Example 296, rac-(3R,4R)-4-{5-Cyclobutyl-2-[2-(3,4,6-trifluoro-pyridin-2-ylamino)-pyridin-4-yl]-pyrido[3,4-d]pyrimidin-4-ylamino}-piperidin-3-ol]: the IC50 was less than 100 nM.

With `CC1(C)CNCC[C@@H]1Nc1nc(-c2ccnc(Nc3ccc4cccc(F)c4n3)c2)nc2cncc(C3CCC3)c12` [Example 318, {5-Cyclobutyl-2-[2-(8-fluoro-quinolin-2-ylamino)-pyridin-4-yl]-pyrido[3,4-d]pyrimidin-4-yl}-((S)-3,3-dimethyl-piperidin-4-yl)-amine], the IC50 is less than 100 nM.

Turning to `Fc1cc(F)c(Nc2cc(-c3nc(N[C@H]4[C@@H]5CNC[C@@H]54)c4c(C5CCC5)cncc4n3)ccn2)nc1F` [Example 108, (1S,6S)-3-Aza-bicyclo[3.1.0]hex-6-yl-{(R)-5-cyclobutyl-2-[2-(3,5,6-trifluoro-pyridin-2-ylamino)-pyridin-4-yl]-pyrido[3,4-d]pyrimidin-4-yl}-amine], the half-inhibitory concentration (IC50) was less than 100 nM.

As to `COc1nc(-c2ccnc3[nH]c4ccccc4c23)nc2cncc(C3CCC3)c12` [Example 30, 4-(5-Cyclobutyl-4-methoxy-pyrido[3,4-d]pyrimidin-2-yl)-9H-pyrido[2,3-b]indole], the IC50 is 10000 to 40000 nM.

Regarding `O[C@]12CCN(c3nc(-c4ccnc(Nc5nc6ccccn6n5)c4)nc4cncc(C5CC5)c34)[C@H]1CCNC2` (racemic) [Example 151, (±)-(3aS,7aS)-1-{5-Cyclopropyl-2-[2-([1,2,4]triazolo[1,5-a]pyridin-2-ylamino)-pyridin-4-yl]-pyrido[3,4-d]pyrimidin-4-yl}-octahydro-pyrrolo [3,2-c]pyridin-3a-ol], the 50% inhibitory concentration (IC50) was less than 100 nM.

For `Cc1nc(Nc2cc(-c3nc(N[C@@H]4CCNC[C@H]4C)c4c(C5CCC5)cncc4n3)ccn2)ccc1C#N` (racemic) [Example 312, 6-{4-[5-Cyclobutyl-4-(rac-(3R,4R)-3-methyl-piperidin-4-ylamino)-pyrido[3,4-d]pyrimidin-2-yl]-pyridin-2-ylamino}-2-methyl-nicotinonitrile], the IC50 was less than 100 nM.

Consider `NC[C@@H]1CCN(c2nc(-c3ccnc4[nH]c5ccccc5c34)nc3cncc(C4CCC4)c23)C1` [Example 248, C-{(S)-1-[5-Cyclobutyl-2-(9H-pyrido[2,3-b]indol-4-yl)-pyrido[3,4-d]pyrimidin-4-yl]-pyrrolidin-3-yl}-methylamine], for which the IC50 is less than 100 nM.

For `CC(C)c1cc(C(C)C)c(S(=O)(=O)Oc2nc(-c3ccnc4[nH]c5ccccc5c34)nc3cncc(C4CCC4)c23)c(C(C)C)c1` [Example 204, 2,4,6-Triisopropyl-benzenesulfonic acid 5-cyclobutyl-2-(9H-pyrido[2,3-b]indol-4-yl)-pyrido[3,4-d]pyrimidin-4-yl ester], the IC50 is less than 100 nM.

As for `CC1(C)CNCC[C@@H]1Nc1nc(-c2ccnc(Nc3nc(F)cc(F)c3F)c2)nc2cncc(C3CC3)c12` [Example 325, 5-Cyclopropyl-N-[(4S)-3,3-dimethyl-4-piperidyl]-2-[2-[(3,4,6-trifluoro-2-pyridyl)amino]-4-pyridyl]pyrido[3,4-d]pyrimidin-4-amine], the IC50 is less than 100 nM.

Regarding `C[C@@H]1CNCC[C@@H]1Nc1nc(-c2ccnc(Nc3nc4ccccn4n3)c2)nc2cncc(C3CCC3)c12` (racemic) [Example 276, {5-Cyclobutyl-2-[2-([1,2,4]triazolo[1,5-a]pyridin-2-ylamino)-pyridin-4-yl]-pyrido[3,4-d]pyrimidin-4-yl}-(rac-(3R,4S)-3-methyl-piperidin-4-yl)-amine], the half-inhibitory concentration (IC50) was less than 100 nM.

As for `C[C@@H]1CNCC[C@H]1Nc1nc(-c2ccnc(Nc3ncccc3F)c2)nc2cncc(C3CCC3)c12` (racemic) [Example 289, {5-Cyclobutyl-2-[2-(3-fluoro-pyridin-2-ylamino)-pyridin-4-yl]-pyrido[3,4-d]pyrimidin-4-yl}-(rac-(3R,4R)-3-methyl-piperidin-4-yl)-amine], the IC50 is less than 100 nM.

For the compound `CNC(=O)c1cc2c(-c3nc(N4CCC5CNCCC54)c4c(C5CC5)cncc4n3)ccnc2[nH]1` (stereo not shown) [Example 99, 4-[5-Cyclopropyl-4-(octahydro-pyrrolo[3,2-c]pyridin-1-yl)-pyrido[3,4-d]pyrimidin-2-yl]-1H-pyrrolo[2,3-b]pyridine-2-carboxylic acid methylamide], the IC50 was less than 100 nM.

As to `c1ccc(Cn2cnc(Nc3cc(-c4nc(N5CCC6CNCCC65)c5c(C6CC6)cncc5n4)ccn3)n2)cc1` (stereo not shown) [Example 239, (1-Benzyl-1H-1,2,4-triazol-3-yl)-{4-[5-cyclopropyl-4-(octahydro-pyrrolo[3,2-c]pyridin-1-yl)-pyrido[3,4-d]pyrimidin-2-yl]-pyridin-2-yl}-amine], the IC50 was less than 100 nM.

On to `NC1CCC(Nc2nc(-c3ccnc4[nH]c5ccccc5c34)nc3cncc(C4CCC4)c23)C1` (stereo not shown) [Example 60, N-[5-Cyclobutyl-2-(9H-pyrido[2,3-b]indol-4-yl)-pyrido[3,4-d]pyrimidin-4-yl]-cyclopentane-1,3-diamine], for which the IC50 is less than 100 nM.

Turning to `OC[C@@H]1CNCCN1c1nc(-c2ccnc3[nH]c(C(F)(F)F)cc23)nc2cncc(C3CCC3)c12` [Example 5, {(S)-1-[5-Cyclobutyl-2-(2-trifluoromethyl-1H-pyrrolo[2,3-b]pyridin-4-yl)-pyrido[3,4-d]pyrimidin-4-yl]-piperazin-2-yl}-methanol], the 50% inhibitory concentration (IC50) is 1000 to 10000 nM.

In the case of `CC1(C)CNCC[C@@H]1Nc1nc(-c2ccnc3[nH]c4ccccc4c23)nc2cncc(C3CCC3)c12` [Example 200], the half-maximal inhibitory concentration (IC50) lay in the range of 100 to 1000 nM.

For orientation: IC50 means the concentration that inhibits the measured activity by half.
